According to US8263598B2, “Substituted sulfonamide compounds” (Gruenenthal GmbH, priority 2008, dated 2012):

How the values were obtained:
[1] = molecular target: T1, human B1R receptor (hB1R) (Homo sapiens, UniProt P46663); assay: FLIPR Ca2+ assay on human bradykinin 1 receptor (CHO K1 hB1R cells); assay type: cell-based; conditions: test substance 10 μM; CHO K1 cells with human B1R gene; agonist Lys-Des-Arg9-bradykinin 0.5 nM; compared to maximum achievable inhibition
T1 construct: host or cells: CHO K1 cells
T1 sequence (P46663 1-353): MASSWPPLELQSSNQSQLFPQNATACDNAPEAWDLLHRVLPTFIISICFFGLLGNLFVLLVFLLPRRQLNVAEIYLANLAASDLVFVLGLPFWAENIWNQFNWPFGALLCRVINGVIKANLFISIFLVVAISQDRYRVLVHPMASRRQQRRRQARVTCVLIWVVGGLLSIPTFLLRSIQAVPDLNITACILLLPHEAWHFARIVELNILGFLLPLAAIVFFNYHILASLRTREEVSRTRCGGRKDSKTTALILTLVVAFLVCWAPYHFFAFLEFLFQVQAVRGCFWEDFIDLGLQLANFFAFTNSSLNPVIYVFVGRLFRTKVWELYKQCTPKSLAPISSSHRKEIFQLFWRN
How it was run: (§1)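 CHO K1 cells stably expressing human or rat B1R were loaded with Fluo-4 and tested at 10 μM compound. Ca²⁺ signal was read in FLIPR as % activation versus agonist. After 10 min, agonist was added (hB1R: Lys-Des-Arg9-bradykinin 0.5 nM; rB1R: Des-Arg9-bradykinin 100 nM), and % inhibition was taken relative to maximum achievable inhibition.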

[2] = molecular target: T2, B1R receptor of rats (rB1R) (Rattus norvegicus, UniProt P97583); assay: FLIPR Ca2+ assay on rat bradykinin 1 receptor (CHO K1 rB1R cells); assay type: cell-based; conditions: test substance 10 μM; CHO K1 cells with B1R gene of rats; agonist Des-Arg9-bradykinin 100 nM; compared to maximum achievable inhibition
T2 construct: host or cells: CHO K1 cells
T2 sequence (P97583 1-337): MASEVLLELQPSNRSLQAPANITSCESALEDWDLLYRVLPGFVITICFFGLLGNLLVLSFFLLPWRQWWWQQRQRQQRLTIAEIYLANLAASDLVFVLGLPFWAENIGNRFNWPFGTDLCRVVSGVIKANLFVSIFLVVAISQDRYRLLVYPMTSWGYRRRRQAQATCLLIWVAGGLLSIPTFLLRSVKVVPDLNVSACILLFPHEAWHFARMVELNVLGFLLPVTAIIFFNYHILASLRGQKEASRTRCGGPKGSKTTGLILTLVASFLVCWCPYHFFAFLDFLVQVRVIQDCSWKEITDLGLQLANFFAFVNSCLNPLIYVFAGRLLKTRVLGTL
How it was run: as §1

Structure (SMILES)	inhibition at 10 µM [1] [%]	inhibition at 10 µM [2] [%]
COc1cc(C)c(S(=O)(=O)N(C)CCOCC(=O)N2CCn3cccc3C2c2cccnc2)c(C)c1C (centres unmarked) [Example 81, 4-methoxy-N,2,3,6-tetramethyl-N-(2-(2-oxo-2-(1-(pyridin-3-yl)-3,4-dihydropyrrolo[1,2-a]pyrazin-2(1H)-yl)ethoxy)ethyl)benzenesulfonamide]	98	99
COc1cc(C)c(S(=O)(=O)N(C)CCOCC(=O)N2CCn3cccc3C2c2cccs2)c(C)c1C (centres unmarked) [Example 88, 4-methoxy-N,2,3,6-tetramethyl-N-(2-(2-oxo-2-(1-(thiophen-2-yl)-3,4-dihydropyrrolo[1,2-a]pyrazin-2(1H)-yl)ethoxy)ethyl)benzenesulfonamide]	101	98
COc1cc(C)c(S(=O)(=O)N(C)CCOCC(=O)N2CCn3cccc3C2c2ccc(C(C)(C)C)cc2)c(C)c1 (centres unmarked) [Example 64, N-(2-(2-(1-(4-tert-butylphenyl)-3,4-dihydropyrrolo[1,2-a]pyrazin-2(1H)-yl)-2-oxoethoxy)ethyl)-4-methoxy-N,2,6-trimethylbenzenesulfonamide]	100	99
COc1c(C)cc(S(=O)(=O)N(C)CCOCC(=O)N2CCn3c(CN(C)C)ccc3C2c2ccccc2)c(C)c1C (centres unmarked) [Example 105, N-(2-(2-(6-((dimethylamino)methyl)-1-phenyl-3,4-dihydropyrrolo[1,2-a]pyrazin-2(1H)-yl)-2-oxoethoxy)ethyl)-4-methoxy-N,2,3,5-tetramethylbenzene-sulfonamide]	100	100
COc1cc(C)c(S(=O)(=O)N(C)CCOCC(=O)N2CCn3cccc3C2c2ccc(F)c(F)c2)c(C)c1C (centres unmarked) [Example 85, N-(2-(2-(1-(3,4-difluorophenyl)-3,4-dihydropyrrolo[1,2-a]pyrazin-2(1H)-yl)-2-oxoethoxy)ethyl)-4-methoxy-N,2,3,6-tetramethylbenzenesulfonamide]	99	92
COc1cc(C)c(S(=O)(=O)N(C)CCOCC(=O)N2CCn3cccc3C2c2ccccc2)c(C)c1C (centres unmarked) [Example 84, 4-methoxy-N,2,3,6-tetramethyl-N-(2-(2-oxo-2-(1-phenyl-3,4-dihydropyrrolo[1,2-a]pyrazin-2(1H)-yl)ethoxy)ethyl)benzenesulfonamide]	101	99
COc1cc(C)c(S(=O)(=O)N(C)CCOCC(=O)N2CCn3c(CN4CCCC4)ccc3C2c2ccccc2)c(C)c1 (centres unmarked) [Example 15, 4-methoxy-N,2,6-trimethyl-N-(2-(2-oxo-2-(1-phenyl-6-(pyrrolidin-1-ylmethyl)-3,4-dihydropyrrolo[1,2-a]pyrazin-2(1H)-yl)ethoxy)ethyl)benzenesulfonamide]	101	101

Continued, values first:

inhibition at 10 µM [1] [%]	inhibition at 10 µM [2] [%]	Structure (SMILES)
103	103	COc1cc(C)c(S(=O)(=O)N(C)CCOCC(=O)N2CCn3c(CN4CCOCC4)ccc3C2c2ccccc2)c(C)c1C (centres unmarked) [Example 150, 4-methoxy-N,2,3,6-tetramethyl-N-(2-(2-(6-(morpholinomethyl)-1-phenyl-3,4-dihydropyrrolo[1,2-a]pyrazin-2(1H)-yl)-2-oxoethoxy)ethyl)benzenesulfonamide]
101	101	COc1c(C)cc(S(=O)(=O)N(C)CCOCC(=O)N2CCn3c(CN(C)C)ccc3C2c2cccs2)c(C)c1C (centres unmarked) [Example 112, N-(2-(2-(6-((dimethylamino)methyl)-1-(thiophen-2-yl)-3,4-dihydropyrrolo[1,2-a]pyrazin-2(1H)-yl)-2-oxoethoxy)ethyl)-4-methoxy-N,2,3,5-tetramethylbenzene-sulfonamide]
45	87	O=C(CC(NS(=O)(=O)c1ccc2ccccc2c1)c1ccccc1)N1CCn2c(Cc3cccnc3)ccc2C1 (centres unmarked) [Example 176, N-(3-Oxo-1-phenyl-3-(6-(pyridin-3-ylmethyl)-3,4-dihydropyrrolo[1,2-a]pyrazin-2(1H)-yl)propyl)naphthalene-2-sulfonamide]
